In patent US10875876B2, “Cyclized sulfamoylarylamide derivatives and the use thereof as medicaments for the treatment of hepatitis B” (priority 2015, dated 2020):
Read-outs that look alike come from different tables or passages of the source.

Key:
[1] = Cytotoxicity in HepG2 cells, Resazurin assay; settings: human, HepG2 cells, TOX-HepG2-4 d CC50 (μM), HepG2 cells incubated for 4 days, viability by Resazurin assay
HBV = assay: anti HBV activity, HepG2.117 cell line, intracellular HBV DNA by realtime PCR; format: cell-based; settings: HepG2.117 cell line (Tet-off), 3 days of treatment, intracellular HBV DNA quantified by realtime PCR, read-out: HBV-AVE-HepG2.117 EC50
In short: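 HepG2.117 cells, a Tet-off line that replicates HBV without doxycycline, were induced and then treated in duplicate with serially diluted compound. After 3 days, intracellular HBV DNA was quantified by real-time PCR with an HBV-specific primer set and probe.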

[2] = Hepatitis B virus, HepG2.117, 72 h

Structure (SMILES) | CC50 at 4 days [1] [µM] | EC50 (HBV; [2]) [µM] | melting point [°C] | EC50 (HBV) [µM]
Cn1cc2c(c1C(=O)Nc1ccc(F)c(C(F)F)c1)OC[C@@H](C(C)(C)O)NS2(=O)=O [Compound 101, (3S)—N-[3-(difluoromethyl)-4-fluoro-phenyl]-3-(1-hydroxy-1-methyl-ethyl)-7-methyl-1,1-dioxo-3,4-dihydro-2H-pyrrolo[3,4-b][1,4,5]oxathiazepine-6-carboxamide] | > 25 | 0.014 | 214.4 | –
Cn1cc2c(c1C(=O)Nc1ccc(F)c(F)c1)CC(O)CNS2(=O)=O (stereo not shown) [Compound 68, N-(3,4-difluorophenyl)-4-hydroxy-7-methyl-1,1-dioxo-2,3,4,5-tetrahydropyrrolo[3,4-f]thiazepine-6-carboxamide] | > 25 | 0.23 | 229 | –
Cn1cc2c(c1C(=O)Nc1ccnc(C(F)F)c1)OCC(C)(C)NS2(=O)=O [Compound 158, N-[2-(difluoromethyl)-4-pyridyl]-3,3,7-trimethyl-1,1-dioxo-2,4-dihydropyrrolo[3,4-b][1,4,5]oxathiazepine-6-carboxamide] | > 25 | 0.031 | 229.9 | –
Cc1cc(NC(=O)c2c3c(cn2C)S(=O)(=O)N[C@@H]([C@H](C)O)CC3)ccc1F [Compound 112, (3R)—N-(4-fluoro-3-methyl-phenyl)-3-[(1S)-1-hydroxyethyl]-7-methyl-1,1-dioxo-2,3,4,5-tetrahydropyrrolo[3,4-f]thiazepine-6-carboxamide] | > 25 | 0.003 | 287.3 | –
C[C@H](O)[C@H]1CCc2c(cn(C)c2C(=O)Nc2ccc(F)c(C(F)F)c2)S(=O)(=O)N1 [Compound 103, (3R)—N-[3-(difluoromethyl)-4-fluoro-phenyl]-3-[(1S)-1-hydroxyethyl]-7-methyl-1,1-dioxo-2,3,4,5-tetrahydropyrrolo[3,4-f]thiazepine-6-carboxamide] | > 25 | 0.006 | 274.7 | –
C[C@H](O)[C@H]1C=Cc2c(cn(C)c2C(=O)Nc2ccc(F)c(Cl)c2)S(=O)(=O)N1 [Compound 194, (3R)—N-(3-chloro-4-fluoro-phenyl)-3-[(1S)-1-hydroxyethyl]-7-methyl-1,1-dioxo-2,3-dihydropyrrolo[3,4-f]thiazepine-6-carboxamide] | > 25 | 0.006 | 211.3 | –
Cn1cc2c(c1C(=O)Nc1ccc(F)c(F)c1)OC[C@H](C(O)C1CC1)NS2(=O)=O (stereo partly shown) | – | – | 244.8 | –
CCC(O)[C@@H]1COc2c(cn(C)c2C(=O)Nc2ccc(F)c(C#N)c2)S(=O)(=O)N1 (stereo in doubt) [Compound 163, N-(3-cyano-4-fluoro-phenyl)-3-(1-hydroxypropyl)-7-methyl-1,1-dioxo-3,4-dihydro-2H-pyrrolo[3,4-b][1,4,5]oxathiazepine-6-carboxamide] | > 25 | > 0.125 | 247 | –
Cn1cc2c(c1C(=O)Nc1ccc(F)c(F)c1)OCC(C)(c1ccccc1)NS2(=O)=O (stereo not shown) [Compound 125, N-(3,4-difluorophenyl)-3,7-dimethyl-1,1-dioxo-3-phenyl-2,4-dihydropyrrolo[3,4-b][1,4,5]oxathiazepine-6-carboxamide] | > 25 | 0.007 | 256.6 | –
Cn1cc2c(c1C(=O)Nc1ccc(F)c(Br)c1F)CCC(C(C)(C)O)NS2(=O)=O (stereo not shown) [Compound 179, N-(3-bromo-2,4-difluoro-phenyl)-3-(1-hydroxy-1-methyl-ethyl)-7-methyl-1,1-dioxo-2,3,4,5-tetrahydropyrrolo[3,4-f]thiazepine-6-carboxamide] | > 25 | 0.021 | 236.8 | –
Cn1cc2c(c1C(=O)Nc1ccc(F)c(C#N)c1)OC[C@H](C(O)C1CC1)NS2(=O)=O (stereo partly shown) | – | – | 233.9 | –
C[C@H]1CCc2c(cn(C)c2C(=O)Nc2ccc(F)c(C#N)c2F)S(=O)(=O)N1 [Compound 157, (3S)—N-(3-cyano-2,4-difluoro-phenyl)-3,7-dimethyl-1,1-dioxo-2,3,4,5-tetrahydropyrrolo[3,4-f]thiazepine-6-carboxamide] | > 25 | 0.017 | 247.5 | –
Cc1cc(NC(=O)c2c3c(cn2C)S(=O)(=O)N[C@@H](C(O)C2CC2)CO3)ccc1F (stereo in doubt) | – | – | 234.7 | –
C[C@H]1CCc2c(cn(C)c2C(=O)Nc2ccc(F)c(C(F)F)c2F)S(=O)(=O)N1 [Compound 164, (3S)—N-[3-(difluoromethyl)-2,4-difluoro-phenyl]-3,7-dimethyl-1,1-dioxo-2,3,4,5-tetrahydropyrrolo[3,4-f]thiazepine-6-carboxamide] | > 25 | 0.012 | 227.7 | –
Cn1cc2c(c1C(=O)Nc1ccc(F)c(F)c1)OC[C@@](C)(c1ccccn1)NS2(=O)=O [Compound 126, (3R)—N-(3,4-difluorophenyl)-3,7-dimethyl-1,1-dioxo-3-(2-pyridyl)-2,4-dihydropyrrolo[3,4-b][1,4,5]oxathiazepine-6-carboxamide] | > 25 | 0.062 | 270.5 | –
Cn1cc2c(c1C(=O)Nc1ccc(F)c(F)c1)CC[C@@H](C(C)(C)O)NS2(=O)=O [Compound 113, (3S)—N-(3,4-difluorophenyl)-3-(1-hydroxy-1-methyl-ethyl)-7-methyl-1,1-dioxo-2,3,4,5-tetrahydropyrrolo[3,4-f]thiazepine-6-carboxamide] | > 25 | 0.12 | 217.7 | –
Cn1cc2c(c1C(=O)Nc1ccc(F)c(C(F)F)c1)OC[C@](C)(c1ccccn1)NS2(=O)=O [Compound 169, (3S)—N-[3-(difluoromethyl)-4-fluoro-phenyl]-3,7-dimethyl-1,1-dioxo-3-(2-pyridyl)-2,4-dihydropyrrolo[3,4-b][1,4,5]oxathiazepine-6-carboxamide] | > 25 | 0.017 | 208.8 | –
CCC(O)[C@H]1COc2c(cn(C)c2C(=O)Nc2ccc(F)c(C(F)F)c2)S(=O)(=O)N1 (stereo partly shown) | – | – | 224.5 | –

Structure (SMILES) | CC50 at 4 days [1] [µM] | EC50 (HBV; [2]) [µM] | melting point [°C] | EC50 (HBV) [µM]
Cn1cc2c(c1C(=O)Nc1ccc(F)c(F)c1)C=CCNS2(=O)=O [Compound 9, N-(3,4-difluorophenyl)-7-methyl-1,1-dioxo-2,3-dihydropyrrolo[3,4-f]-thiazepine-6-carboxamide] | > 25 | 0.036 | 221.9 | –
Cn1cc2c(c1C(=O)Nc1ccc(F)c(F)c1)OCC(C)(c1ncccn1)NS2(=O)=O (single isomer, unassigned) [Compound 153a, N-(3,4-difluorophenyl)-3,7-dimethyl-1,1-dioxo-3-pyrimidin-2-yl-2,4-dihydropyrrolo[3,4-b][1,4,5]oxathiazepine-6-carboxamide] | > 25 | – | 228.3 | > 0.125
CCC(O)[C@H]1COc2c(cn(C)c2C(=O)Nc2ccc(F)c(C#N)c2)S(=O)(=O)N1 (stereo partly shown) | – | – | 252.2 | –
C[C@H](O)[C@H]1CCc2c(cn(C)c2C(=O)Nc2ccc(F)c(C(F)F)c2F)S(=O)(=O)N1 [Compound 188, (3R)—N-[3-(difluoromethyl)-2,4-difluoro-phenyl]-3-[(1S)-1-hydroxyethyl]-7-methyl-1,1-dioxo-2,3,4,5-tetrahydropyrrolo[3,4-f]thiazepine-6-carboxamide] | > 25 | 0.011 | 277.1 | –
CCC(O)[C@H]1COc2c(cn(C)c2C(=O)Nc2ccc(F)c(F)c2)S(=O)(=O)N1 (stereo partly shown) | – | – | 214.6 | –
CC1C=Cc2c(csc2C(=O)Nc2ccc(F)c(F)c2)S(=O)(=O)N1 (stereo not shown) | – | – | 220.8 | –
CCC(O)[C@@H]1COc2c(cn(C)c2C(=O)Nc2ccc(F)c(C(F)F)c2)S(=O)(=O)N1 (stereo in doubt) | – | – | 224.6 | –
Cn1cc2c(c1C(=O)Nc1ccc(F)c(Cl)c1)OC[C@H](C(O)C1CC1)NS2(=O)=O (stereo in doubt) | – | – | 215.8 | –
CC(C)C(O)C1COc2c(cn(C)c2C(=O)Nc2ccc(F)c(C#N)c2)S(=O)(=O)N1 (racemic) | – | – | 213.7 | –
CC(NCC(F)(F)F)C1CCc2c(cn(C)c2C(=O)Nc2cc(F)c(F)c(F)c2)S(=O)(=O)N1 (stereo not shown) | – | – | 216.2 | –
CC(N)[C@H]1CCc2c(cn(C)c2C(=O)Nc2cc(F)c(F)c(F)c2)S(=O)(=O)N1 (stereo in doubt) | – | – | 281.2 | –
CC(C)C(O)C1COc2c(cn(C)c2C(=O)Nc2ccc(F)c(F)c2)S(=O)(=O)N1 (racemic) | – | – | 247.3 | –
CCC(O)[C@@H]1COc2c(cn(C)c2C(=O)Nc2ccc(F)c(F)c2)S(=O)(=O)N1 (stereo in doubt) | – | – | 212.6 | –
Cn1cc2c(c1C(=O)Nc1ccc(F)c(C(F)F)c1)OC[C@H](C(O)C1CC1)NS2(=O)=O (stereo partly shown) | – | – | 240.7 | –
CC1CCc2c(cn(C)c2C(=O)Nc2ccc(F)c(F)c2)S(=O)(=O)N1 (stereo not shown) | – | – | 229.8 | –
Cc1sc2c(c1C(=O)Nc1ccc(F)c(F)c1)OCC(C)NS2(=O)=O (stereo not shown) | – | – | 221.5 | –
Cn1cc2c(c1C(=O)Nc1cc(F)c(F)c(F)c1)OC[C@H](C(C)(C)O)NS2(=O)=O [Compound 147, (3R)-3-(1-hydroxy-1-methyl-ethyl)-7-methyl-1,1-dioxo-N-(3,4,5-trifluorophenyl)-3,4-dihydro-2H-pyrrolo[3,4-b][1,4,5]oxathiazepine-6-carboxamide] | > 25 | 0.013 | – | –
